Measurements: patent US10750743B2, “Pyridazinone herbicides” (E.I. DU PONT DE NEMOURS AND COMPANY, priority 2015, dated 2020)

Columns and labels:
Type in all cases: in vivo
[1] = test system: ryegrass, It. (Italian ryegrass, Lolium multiflorum); test: Test A postemergence application, visual injury rating; conditions: 0 to 100 scale, 0 no effect, 100 complete control
Text: (§1) Seeds of plant species selected from barnyardgrass (Echinochloa crus-galli), kochia (Kochia scoparia), ragweed (common ragweed, Ambrosia elatior), ryegrass, It. (Italian ryegrass, Lolium multiflorum), foxtail, giant (giant foxtail, Setaria faberii), and pigweed (Amaranthus retroflexus), were planted into a blend of loam soil and sand and treated preemergence with a directed soil spray using test chemicals formulated in a non-phytotoxic solvent mixture which included a surfactant.
(§2) At the same time, plants selected from these weed species and also wheat (Triticum aestivum), corn (Zea mays), blackgrass (Alopecurus myosuroides), and galium (catchweed bedstraw, Galium aparine), were planted in pots containing the same blend of loam soil and sand and treated with postemergence applications of test chemicals formulated in the same manner Plants ranged in height from 2 to 10 cm and were in the one- to two-leaf stage for the postemergence treatment. Treated plants and untreated controls were maintained in a greenhouse for approximately 10 d, after which time all treated plants were compared to untreated controls and visually evaluated for injury. Plant response ratings, summarized in Table A, are based on a 0 to 100 scale where 0 is no effect and 100 is complete control. A dash (-) response means no test result.

[2] = test system: foxtail, giant (giant foxtail, Setaria faberii); test: as above; conditions: 0 to 100 scale, 0 no effect, 100 complete control
Text: as §1, §2

corn (Zea mays) = test: as above; conditions: 0 to 100 scale, 0 no effect, 100 complete control
Text: as §1, §2

[3] = test system: barnyardgrass (Echinochloa crus-galli); test: as above; conditions: 0 to 100 scale, 0 no effect, 100 complete control
Text: as §1, §2

[4] = test system: ragweed (common ragweed, Ambrosia elatior); test: as above; conditions: 0 to 100 scale, 0 no effect, 100 complete control
Text: as §1, §2

[5] = test system: wheat (Triticum aestivum); test: as above; conditions: 0 to 100 scale, 0 no effect, 100 complete control
Text: as §1, §2

[6] = test system: galium (catchweed bedstraw, Galium aparine); test: as above; conditions: 0 to 100 scale, 0 no effect, 100 complete control
Text: as §1, §2

[7] = test system: pigweed (Amaranthus retroflexus); test: as above; conditions: 0 to 100 scale, 0 no effect, 100 complete control
Text: as §1, §2

kochia (Kochia scoparia) [8] = test: as above; conditions: 0 to 100 scale, 0 no effect, 100 complete control
Text: as §1, §2

[9] = test system: blackgrass (Alopecurus myosuroides); test: as above; conditions: 0 to 100 scale, 0 no effect, 100 complete control
Text: as §1, §2

[10] = test system: ryegrass, It. (Italian ryegrass, Lolium multiflorum); test: Test A preemergence, directed soil spray, visual injury rating; conditions: 0 is no effect, 100 is complete control
Text: as §1, §2

[11] = test system: foxtail, giant (giant foxtail, Setaria faberii); test: as above; conditions: 0 is no effect, 100 is complete control
Text: as §1, §2

[12] = test system: barnyardgrass (Echinochloa crus-galli); test: as above; conditions: 0 is no effect, 100 is complete control
Text: as §1, §2

[13] = test system: ragweed (common ragweed, Ambrosia elatior); test: as above; conditions: 0 is no effect, 100 is complete control
Text: as §1, §2

[14] = test system: pigweed (Amaranthus retroflexus); test: as above; conditions: 0 is no effect, 100 is complete control
Text: as §1, §2

kochia (Kochia scoparia) [15] = test: as above; conditions: 0 is no effect, 100 is complete control
Text: as §1, §2

Structure (SMILES)	Ryegrass, It. plant response rating ([1]; 125 g ai/ha)	Ryegrass, It. plant response rating ([1]; 500 g ai/ha)	Foxtail, Giant plant response rating ([2]; 125 g ai/ha)	Foxtail, Giant plant response rating ([2]; 500 g ai/ha)	Corn plant response rating (corn (Zea mays); 125 g ai/ha)	Corn plant response rating (corn (Zea mays); 500 g ai/ha)	Barnyardgrass plant response rating ([3]; 125 g ai/ha)	Barnyardgrass plant response rating ([3]; 500 g ai/ha)	Ragweed plant response rating ([4]; 125 g ai/ha)	Ragweed plant response rating ([4]; 500 g ai/ha)	Wheat plant response rating ([5]; 125 g ai/ha)	Wheat plant response rating ([5]; 500 g ai/ha)	Galium plant response rating ([6]; 125 g ai/ha)	Galium plant response rating ([6]; 500 g ai/ha)	Pigweed plant response rating ([7]; 125 g ai/ha)	Pigweed plant response rating ([7]; 500 g ai/ha)	Kochia plant response rating (kochia (Kochia scoparia) [8]; 125 g ai/ha)	Kochia plant response rating (kochia (Kochia scoparia) [8]; 500 g ai/ha)	Blackgrass plant response rating ([9]; 125 g ai/ha)	Blackgrass plant response rating ([9]; 500 g ai/ha)	other results
CCOC(=O)Oc1c(C)nn(C)c(=O)c1-c1cccc2sccc12 [Compound 5]	70	90	0	20	0	0	0	20	0	20	0	20	30	80	0	20	0	20	30	60	Plant response rating (0 to 100 scale), Ryegrass, It. ([10]; 125 g ai/ha): 80; Plant response rating (0 to 100 scale), Ryegrass, It. ([10]; 500 g ai/ha): 100; Plant response rating (0 to 100 scale), Foxtail, Giant ([11]; 125 g ai/ha): 0; Plant response rating (0 to 100 scale), Foxtail, Giant ([11]; 500 g ai/ha): 40; Plant response rating (0 to 100 scale), Barnyardgrass ([12]; 125 g ai/ha): 0; Plant response rating (0 to 100 scale), Barnyardgrass ([12]; 500 g ai/ha): 40; Plant response rating (0 to 100 scale), Ragweed ([13]; 125 g ai/ha): 0; Plant response rating (0 to 100 scale), Ragweed ([13]; 500 g ai/ha): 20; Plant response rating (0 to 100 scale), Pigweed ([14]; 125 g ai/ha): 20; Plant response rating (0 to 100 scale), Pigweed ([14]; 500 g ai/ha): 100; Plant response rating (0 to 100 scale), Kochia (kochia (Kochia scoparia) [15]; 125 g ai/ha): 10; Plant response rating (0 to 100 scale), Kochia (kochia (Kochia scoparia) [15]; 500 g ai/ha): 30
Cc1cnc2sc(C)c(-c3c(OC(=O)OC(C)C)c(C)nn(C)c3=O)c2c1 [Compound 6]	20	60	20	40	0	0	0	10	10	30	0	0	50	70	20	80	30	60	0	20	Plant response rating (0 to 100 scale), Ryegrass, It. ([10]; 125 g ai/ha): 0; Plant response rating (0 to 100 scale), Ryegrass, It. ([10]; 500 g ai/ha): 50; Plant response rating (0 to 100 scale), Foxtail, Giant ([11]; 125 g ai/ha): 20; Plant response rating (0 to 100 scale), Foxtail, Giant ([11]; 500 g ai/ha): 0; Plant response rating (0 to 100 scale), Barnyardgrass ([12]; 125 g ai/ha): 0; Plant response rating (0 to 100 scale), Barnyardgrass ([12]; 500 g ai/ha): 0; Plant response rating (0 to 100 scale), Ragweed ([13]; 125 g ai/ha): 0; Plant response rating (0 to 100 scale), Pigweed ([14]; 125 g ai/ha): 0; Plant response rating (0 to 100 scale), Pigweed ([14]; 500 g ai/ha): 70; Plant response rating (0 to 100 scale), Kochia (kochia (Kochia scoparia) [15]; 125 g ai/ha): 0; Plant response rating (0 to 100 scale), Kochia (kochia (Kochia scoparia) [15]; 500 g ai/ha): 50
Cc1cnc2sc(C)c(-c3c(OC(=O)C4CC4)c(C)nn(C)c3=O)c2c1 [Compound 9]	30	60	0	40	0	0	0	20	10	30	0	0	50	60	50	80	40	50	0	20	Plant response rating (0 to 100 scale), Ryegrass, It. ([10]; 125 g ai/ha): 30; Plant response rating (0 to 100 scale), Ryegrass, It. ([10]; 500 g ai/ha): 70; Plant response rating (0 to 100 scale), Foxtail, Giant ([11]; 125 g ai/ha): 0; Plant response rating (0 to 100 scale), Foxtail, Giant ([11]; 500 g ai/ha): 40; Plant response rating (0 to 100 scale), Barnyardgrass ([12]; 125 g ai/ha): 0; Plant response rating (0 to 100 scale), Barnyardgrass ([12]; 500 g ai/ha): 0; Plant response rating (0 to 100 scale), Ragweed ([13]; 500 g ai/ha): 30; Plant response rating (0 to 100 scale), Pigweed ([14]; 125 g ai/ha): 0; Plant response rating (0 to 100 scale), Pigweed ([14]; 500 g ai/ha): 30; Plant response rating (0 to 100 scale), Kochia (kochia (Kochia scoparia) [15]; 125 g ai/ha): 0; Plant response rating (0 to 100 scale), Kochia (kochia (Kochia scoparia) [15]; 500 g ai/ha): 30
